# Source: ChEMBL document CHEMBL1153751, “Biologically active tetranorditerpenoids from the fungus Sclerotinia homoeocarpa causal agent of dollar spot in turfgrass” (J Nat Prod, 2009)
# Active and inactive are the calls of the source. The rule behind the calls is not given here.
# Key:
# [1] = system: Lactuca sativa; experiment: Phytotoxicity against Lactuca sativa at 0.1 mg/ml; format: functional, organism-based
# [2] = system: KB; experiment: Cytotoxicity against human KB cells after 48 hrs by neutral red dye staining; format: functional, cell-based
# [3] = system: Vero; experiment: Cytotoxicity against african green monkey Vero cells after 48 hrs by neutral red dye staining; format: cell-based; details: Chlorocebus sabaeus
# [4] = Cytotoxicity against pig LLC-PK11 cells after 48 hrs by neutral red dye staining; format: functional, cell-based; details: Sus scrofa, LLC-PK11, 48 h
# [5] = system: SK-OV-3; experiment: Cytotoxicity against human SKOV3 cells after 48 hrs by neutral red dye staining; format: functional, cell-based; details: SK-OV-3, 48 h
# [6] = system: Agrostis stolonifera; experiment: Phytotoxicity against Agrostis stolonifera at 0.1 mg/ml; format: functional, organism-based
# [7] = system: SK-MEL; experiment: Cytotoxicity against human SK-MEL cells after 48 hrs by neutral red dye staining; format: functional, cell-based
# [8] = system: Agrostis stolonifera; experiment: Phytotoxicity against Agrostis stolonifera at 1 mg/ml; format: functional, organism-based
# [9] = system: BT-549; experiment: Cytotoxicity against human BT549 cells after 48 hrs by neutral red dye staining; format: functional, cell-based; details: BT-549, 48 h
# [10] = system: Lactuca sativa; experiment: Phytotoxicity against Lactuca sativa at 1 mg/ml; format: functional, organism-based
# [11] = system: Lemna aequinoctialis; experiment: Phytotoxicity against Lemna paucicostata after 7 days; format: functional, organism-based; details: 168 h, read-out: I50
# [12] = system: Plasmodium falciparum; experiment: Antiplasmodial activity against chloroquine-sensitive Plasmodium falciparum D6 assessed as LDH activity at 4760 ng/ml after 72 hrs by malstat reagent method; format: functional, organism-based
# [13] = system: Agrostis stolonifera; experiment: Phytotoxicity against Agrostis stolonifera at 0.001 mg/ml; format: functional, organism-based
# [14] = system: Vero; experiment: Cytotoxicity against african green monkey Vero cells at 4760 ng/ml after 48 hrs by neutral red dye staining; format: cell-based; details: Chlorocebus sabaeus
# [15] = system: BT-549; experiment: Cytotoxicity against human BT549 cells at 10 ug/ml after 48 hrs by neutral red dye staining; format: functional, cell-based
# [16] = system: Lactuca sativa; experiment: Phytotoxicity against Lactuca sativa at 0.01 mg/ml; format: functional, organism-based
# [17] = Cytotoxicity against pig LLC-PK11 cells at 10 ug/ml after 48 hrs by neutral red dye staining; format: functional, cell-based, Sus scrofa
# [18] = system: KB; experiment: Cytotoxicity against human KB cells at 10 ug/ml after 48 hrs by neutral red dye staining; format: functional, cell-based
# [19] = system: SK-OV-3; experiment: Cytotoxicity against human SKOV3 cells at 10 ug/ml after 48 hrs by neutral red dye staining; format: functional, cell-based
# [20] = system: SK-MEL; experiment: Cytotoxicity against human SK-MEL cells at 10 ug/ml after 48 hrs by neutral red dye staining; format: functional, cell-based
# [21] = system: Lactuca sativa; experiment: Phytotoxicity against Lactuca sativa at 0.001 mg/ml; format: functional, organism-based
# [22] = system: Agrostis stolonifera; experiment: Phytotoxicity against Agrostis stolonifera at 0.01 mg/ml; format: functional, organism-based
# [23] = system: Plasmodium falciparum; experiment: Antiplasmodial activity against chloroquine-resistant Plasmodium falciparum W2 assessed as LDH activity at 4760 ng/ml after 72 hrs by malstat reagent method; format: functional, organism-based
# [24] = system: Plasmodium falciparum; experiment: microbe, parasite or virus in culture; details: D6, 72 h
# [25] = system: Plasmodium falciparum; experiment: microbe, parasite or virus in culture; details: W2, 72 h
SMILES,Activity [1],IC50 [2],IC50 [3],IC50 [4],IC50 [5],Activity [6],IC50 [7],Activity [8],IC50 [9],Activity [10],IC50 [11],Activity [13],inhibition (INH) [14],Activity [21],IC50 [24],IC50 [25],other results
C[C@@]12C[C@@H](O)C[C@]3(C)C4=CC(=O)OCC4=C[C@@H](OC1=O)C23 (some centres not stated),Active,2.1 µg/mL,1 µg/mL,1.2 µg/mL,3.2 µg/mL,Active,0.41 µg/mL,Active,4.7 µg/mL,Active,9090 nM,,,,,,
C[C@]12CC[C@@H](O)[C@]3(C)C(=O)O[C@@H](C13)[C@H]1O[C@]13COC(=O)C=C32 (some centres not stated),,,,,,,,Active,,Active,,inactive,Not Active,inactive,,,inhibition [12]: inactive; inhibition [15]: inactive; Activity [16]: inactive; Cytotoxicity at 10 ug/ml [17]: Not Active; inhibition [18]: inactive; inhibition [19]: inactive; inhibition [20]: inactive; Activity [22]: inactive; inhibition [23]: inactive
C[C@@]12C[C@@H](O)C[C@]3(C)C4=CC(=O)OC[C@]45O[C@@H]5[C@@H](OC1=O)C23 (some centres not stated),Active,6.8 µg/mL,3.3 µg/mL,4.2 µg/mL,10 µg/mL,Active,1.1 µg/mL,Active,10 µg/mL,Active,3320 nM,inactive,,inactive,0.74 µg/mL,,
C[C@@]12CC[C@@H](O)[C@]3(C)C(=O)O[C@H](C=C4COC(=O)C=C41)C23 (some centres not stated),,,,,,,,Active,,Active,,inactive,Not Active,inactive,,,inhibition [12]: inactive; inhibition [15]: inactive; Activity [16]: inactive; Cytotoxicity at 10 ug/ml [17]: Not Active; inhibition [18]: inactive; inhibition [19]: inactive; inhibition [20]: inactive; Activity [22]: inactive; inhibition [23]: inactive
C[C@@]12CCC[C@]3(C)C4=CC(=O)OCC4=C[C@@H](OC1=O)C23 (some centres not stated),Active,4.2 µg/mL,3.7 µg/mL,5.4 µg/mL,> 10 µg/mL,Active,1.1 µg/mL,Active,> 10 µg/mL,Active,950 nM,inactive,,inactive,0.3 µg/mL,,
C[C@]12C=C[C@H](O)[C@]3(C)C(=O)O[C@@H](C13)[C@H]1O[C@]13COC(=O)C=C32 (some centres not stated),Active,4.4 µg/mL,1.5 µg/mL,2.8 µg/mL,8 µg/mL,Active,0.58 µg/mL,Active,4.8 µg/mL,Active,390 nM,,,,0.75 µg/mL,0.6 µg/mL,Activity [16]: Active
C[C@@]12C=C[C@H](O)[C@]3(C)C(=O)O[C@H](C=C4COC(=O)C=C41)C23 (some centres not stated),Active,0.6 µg/mL,0.95 µg/mL,1.1 µg/mL,1.1 µg/mL,Active,0.12 µg/mL,Active,1.2 µg/mL,Active,790 nM,inactive,,inactive,,0.032 µg/mL,Activity [16]: Active
C[C@@]12CC[C@@H](O)[C@]3(C)C4=CC(=O)OCC4=C[C@@H](OC1=O)C23 (some centres not stated),Active,> 10 µg/mL,4.76 µg/mL,> 10 µg/mL,> 10 µg/mL,Active,3.3 µg/mL,Active,> 10 µg/mL,Active,547000 nM,inactive,,inactive,,,
C[C@]12C=CC[C@]3(C)C(=O)O[C@@H](C13)[C@H]1O[C@]13COC(=O)C=C32 (some centres not stated),Active,,,> 10 µg/mL,,Active,2.8 µg/mL,Active,> 10 µg/mL,Active,650 nM,,Not Active,inactive,2.3 µg/mL,2.3 µg/mL,inhibition [18]: inactive; inhibition [19]: inactive
C[C@]12CCC[C@](C)(C(=O)O)[C@@H]1C=C[C@]1(O)COC(=O)C[C@H]21 [OIDIOLACTONE E],,4.5 µg/mL,1.7 µg/mL,4.8 µg/mL,6.3 µg/mL,,0.72 µg/mL,Active,9 µg/mL,Active,,inactive,,inactive,0.25 µg/mL,0.19 µg/mL,
CCN(CC)CCCC(C)Nc1ccnc2cc(Cl)ccc12 (configuration not stated) [CHLOROQUINE],,,,,,,,,,,,,Not Active,,,,
C[C@@]12C=CC[C@]3(C)C(=O)O[C@H](C=C4COC(=O)C=C41)C23 (some centres not stated),Active,4.3 µg/mL,3 µg/mL,10 µg/mL,6 µg/mL,Active,2.3 µg/mL,Active,9.6 µg/mL,Active,730 nM,inactive,,inactive,,0.13 µg/mL,
C[C@@H]1CC[C@H]2[C@@H](C)C(=O)O[C@@H]3O[C@@]4(C)CC[C@@H]1[C@]32OO4 [ARTEMISININ],,,,,,,,,,,,,Not Active,,0.0047 µg/mL,0.0038 µg/mL,
C[C@@]12CC[C@@H](O)[C@]3(C)C4=CC(=O)OC[C@]45O[C@@H]5[C@@H](OC1=O)C23 (some centres not stated),Active,,,,,Active,10 µg/mL,Active,,Active,6420 nM,inactive,Not Active,,,,inhibition [12]: inactive; inhibition [15]: inactive; Cytotoxicity at 10 ug/ml [17]: Not Active; inhibition [18]: inactive; inhibition [19]: inactive; inhibition [23]: inactive
